Four molecules from patent publication US20250109134A1 (Ascentage Pharma (Suzhou) Co., Ltd., priority 2022, published 2025) can be followed below.

Molecules are shown by their SMILES.

A short description of the data set: Polymorph screening (suspension, anti-solvent, gas-liquid diffusion, slow volatilization methods), resulting form by XRPD. The conditions noted are these: for Crystalline form: suspension method; for Crystalline form results: 40° C., 3 days; for XRPD results: anti-solvent method, methanol solution, no precipitation, open-to-air volatilization. Type of data set: physicochemical. On the procedure: The sample was quickly centrifuged (6000 rpm, 5 min) to remove a supernatant. The resulting precipitate was subjected to vacuum drying (40° C., −0.1 MPa) for 20 h, followed by physical characterization.
The resulting precipitate was subjected to vacuum drying at 40° C. for 20 h, followed by physical characterization.
No clear solution was obtained, and the sample was still undissolved after 1 mL of solvent was added. Then, 500 μL of poor solvent (acetone, ACN, MeOH, EtOAc, THE, or […]) was added, and 40 mg of the sample was added to perform an experiment by a suspension method. All suspension samples were stirred at 50° C. for 2 days and quickly centrifuged (6000 rpm, 5 min) to remove a supernatant. The resulting solid was subjected to vacuum drying at 40° C. for 20 h, followed by physical characterization.
The compound of formula I was subjected to polymorph screening with DCM as a good solvent and with MeOH, EtOH, THE, or EA as an anti-solvent, and was dissolved in both DCM and MeOH systems. The suspension sample was stirred for 2 days and quickly centrifuged to remove a supernatant. The resulting precipitate was subjected to vacuum drying at 25° C. for 20 h, followed by physical characterization.
The resulting precipitate was subjected to vacuum drying at room temperature for 20 h, followed by physical characterization.
The resulting precipitate was subjected to vacuum drying for 20 h.
Sonication was performed for 1 min to obtain a clear solution, which was filtered through a 0.22 μm filter membrane and aliquoted into seven 8 mL glass flasks. An anti-solvent was added until precipitation occurred. The sample was stirred at room temperature for 1 day and quickly centrifuged. The resulting solid precipitate was subjected to vacuum drying.
Then, an anti-solvent was added until precipitation occurred, and the mixture was stirred at room temperature overnight and quickly centrifuged (6000 rpm, 6 min) to remove a supernatant. The resulting precipitate was subjected to vacuum drying for 20 h.
Then, the solution was added to a 20 mL glass flask containing 2 mL of an anti-solvent (shown in the following table), and the flask was tightly capped at room temperature and placed in a fume hood for diffusion. When precipitation occurred, the flask was taken out, and the resulting precipitate was subjected to vacuum drying for 20 h.
The flask placed in a fume hood at room temperature for diffusion. When precipitation occurred, the flask was taken out, and the resulting precipitate was subjected to vacuum drying for 20 h.
The mixture was stirred at 50° C. or room temperature for 6 days and quickly centrifuged (6000 rpm, […]) to remove a supernatant. The resulting precipitate was subjected to vacuum drying for 20 h.

[1] abbreviates: solvent 1,4-Dixoane, suspension, 6 days.

For the molecule `CC(C)N1Cc2cc(C(F)(F)F)ncc2-c2cnc(NCc3c(F)ccc4c3CCO4)n3cnc(c23)C1=O` [compound of formula I], the Crystalline form entry reads like this: (solvent DCM/EA = 1-1, stirred 2 days) “Crystalline form A”; (solvent DCM/EtOH = 2-1, stirred 2 days) “Crystalline form A”; (solvent DCM/THF = 1-1, stirred 2 days) “Crystalline form A”; (solvent DCM, stirred 2 days) “Crystalline form A”; (solvent DMF/H2O = 1/3, 50° C., 2 days) “Crystalline form B + DMF solvate”; (solvent DMF, 50° C., 2 days) “Crystalline form B + DMF solvate”. For the same molecule, the Crystalline form result (solvent NMP/ACN = 1/3, 50° C., 2 days) is given as “N-methyl-2-pyrrolidone solvate”; the Crystalline form entry (solvent NMP/EtOAc = 1/3, 50° C., 2 days) is on record as “N-methyl-2-pyrrolidone solvate”; the Crystalline form entry (solvent NMP/H2O = 1/3, 50° C., 2 days) is recorded as “Crystalline forms A + B”; the Crystalline form entry (solvent NMP/MeOH = 1/3, 50° C., 2 days) is recorded as “N-methyl-2-pyrrolidone solvate”; the Crystalline form result (solvent NMP/THF = 1/3, 50° C., 2 days) is “N-methyl-2-pyrrolidone solvate”; the Crystalline form entry (solvent NMP/acetone = 1/3, 50° C., 2 days) is “N-methyl-2-pyrrolidone solvate”. Besides, the Crystalline form result (solvent NMP, 50° C., 2 days) is reported as “N-methyl-2-pyrrolidone solvate”.

For `CC(C)N1Cc2cc(C(F)(F)F)ncc2-c2cnc(NCc3c(F)ccc4c3CCO4)n3cnc(c23)C1=O.Cl`, the Crystalline form results was “Crystalline form A of hydrochloride salt” (solvent 1,4-dioxane, suspension, from crystalline form A of hydrochloride salt); “Crystalline form B” (solvent 88% acetone, suspension, from crystalline form A of hydrochloride salt); “Crystalline form A of hydrochloride salt” (solvent ACN, suspension, from crystalline form A of hydrochloride salt); “Crystalline form A of hydrochloride salt” (solvent Acetone, suspension, from crystalline form A of hydrochloride salt); “Crystalline form A of hydrochloride salt” (solvent EtOAc, suspension, from crystalline form A of hydrochloride salt); “Ethanol solvate of hydrochloride salt” (solvent EtOH, suspension, from crystalline form A of hydrochloride salt). Further, the Crystalline form results (solvent EtOH—H2O = 3-1, suspension, from crystalline form A of hydrochloride salt) is listed as “Crystalline form A”; the Crystalline form results (solvent H2O, suspension, from crystalline form A of hydrochloride salt) is given as “Crystalline form A of hydrochloride salt”; the Crystalline form results (solvent IPA, suspension, from crystalline form A of hydrochloride salt) is reported as “Isopropanol solvate of hydrochloride salt”; the Crystalline form results (solvent MeOH, suspension, from crystalline form A of hydrochloride salt) is “Partial dissociation into crystalline form A”; the Crystalline form results (solvent MeOH—H2O = 3-1, suspension, from crystalline form A of hydrochloride salt) was “Crystalline form A”; the Crystalline form results (solvent Toluene, suspension, from crystalline form A of hydrochloride salt) is reported as “Crystalline form A of hydrochloride salt”. The Crystalline form results (solvent n-butanol, suspension, from crystalline form A of hydrochloride salt) is reported as “Crystalline form A of hydrochloride salt”.

For `CC(C)N1Cc2cc(C(F)(F)F)ncc2-c2cnc(NCc3c(F)ccc4c3CCO4)n3cnc(c23)C1=O.O=S(=O)(O)O`, the XRPD results by setting is: (anti-solvent Acetone) “Crystalline form B”; (anti-solvent Heptane) “Crystalline form A”. Also, the Crystalline form results by setting is: (solvent 88% acetone, suspension, from crystalline form A of sulfate salt) “Crystalline form B”; (solvent ACN, suspension, from crystalline form A of sulfate salt) “Crystalline form A of sulfate salt”; (solvent ACN—H2O = 1:1, suspension, from crystalline form A of sulfate salt) “Crystalline form A”; (solvent Acetone, suspension, from crystalline form A of sulfate salt) “Crystalline form A of sulfate salt”; (solvent DCM/MeOH = 1:1, suspension, from crystalline form A of sulfate salt) “Crystalline form A”; (solvent EtOAc, suspension, from crystalline form A of sulfate salt) “Sulfate salt forming into sulfate”. Further, the Crystalline form results (solvent EtOH, suspension, from crystalline form A of sulfate salt) is “Sulfate salt forming into sulfate”; the Crystalline form results (solvent EtOH—H2O = 3:1, suspension, from crystalline form A of sulfate salt) is recorded as “Crystalline form A”; the Crystalline form results (solvent IPA, suspension, from crystalline form A of sulfate salt) is “Sulfate salt forming into sulfate”; the Crystalline form results (solvent MeOH, suspension, from crystalline form A of sulfate salt) was “Crystalline form A”; the Crystalline form results (solvent MeOH—H2O = 3:1, suspension, from crystalline form A of sulfate salt) is listed as “Crystalline form A”; the Crystalline form results (solvent THF, suspension, from crystalline form A of sulfate salt) is given as “Crystalline form A of sulfate salt”. Moreover, the Crystalline form results (solvent Toluene, suspension, from crystalline form A of sulfate salt) was “Crystalline form A of sulfate salt”.

For `CC(C)N1Cc2cc(C(F)(F)F)ncc2-c2cnc(NCc3c(F)ccc4c3CCO4)n3cnc(c23)C1=O`, under setting [1], the “Crystalline form results 50° C.” value is listed as 1,4-dioxane solvate and the “Crystalline form results Room temperature” value was 1,4-dioxane solvate.
